Here are results for 3 compounds from US10842892B2, “Methods and apparatus for synthesizing imaging agents, and intermediates thereof” (Lantheus Medical Imaging, Inc., priority 2010, dated 2020).

One data set deals with myocardial ischemia. Nature of the data set: imaging agent 1 and ^82Rb PET versus ^99mTc sestamibi SPECT, perfusion defect assessment (phase II). Format: in vivo, human. Here is the method:
Twenty-six patients (20 men) who underwent ^99mTc sestamibi SPECT and imaging agent 1 PET within 6 months at a single center in a phase II clinical trial were compared to 23 patients (matched by summed difference score (SDS) on SPECT) who underwent ^99mTc sestamibi SPECT and ^82Rb PET (25-50 mCi) within 6 months without change in clinical state. PET was performed with imaging agent 1 at rest (2.3-3.9 mCi) followed 60 min or 24 h later with exercise or adenosine stress (7.3-8.6 mCi). Perfusion defects on SPECT and PET were assessed by computer-assisted visual interpretation, using the standard 17 segment, 5 point-scoring model (0=normal; 4=absent uptake). The extent and severity of ischemia (SDS) was derived from the difference between summed stress score (SSS) and summed rest scores (SRS).
Twenty six patients (20 men) underwent SPECT and PET within 6-months. PET was performed with imaging agent 1 at rest (2.3-3.9 mCi) followed 60 min (n=18) or 24 h (n=8) later with exercise (n=16) or adenosine (n=10) stress (7.3-8.6 mCi). Image quality of SPECT and PET was consensually assessed by 2 independent blinded readers and graded as excellent, good, or fair. Stress and rest perfusion defects on SPECT and PET were assessed by the same readers by computer-assisted visual interpretation, using the standard 17 segment, 5 point-scoring model (0=normal; 4=absent uptake). The extent and severity of ischemia (summed difference score (SDS)) was derived from the difference between summed stress (SSS) and summed rest scores (SRS). Image quality with PET was excellent in 24 and good in 2 patients. In contrast, there were 7 excellent, 18 good, and 1 fair quality study, p<0.001 by SPECT. In 14 patients with abnormal SPECT (SSS≥4), mean SDS was greater with PET than with SPECT (9.6±1.8 vs. 5.4±0.7, p=0.02). In all 12 patients with normal SPECT (SSS<4), SDS was zero by PET and SPECT.

The subject of data set [1] is blood brain barrier (BBB). Put plainly: brain uptake with and without blood brain barrier disruption. Format: in vivo, rat. Here is the method: Male Sprague-Dawley rats were anesthetized with sodium pentobarbital and the left external carotid artery was cannulated close to the internal and external carotid bifurcation. Using saline as control and 25% D-mannitol as hypertonic solution, each were perfused retrogradely in six animals (0.3 mL/kg/sec) for 30 seconds. Two minutes later, ˜1 mCi imaging agent 1 was injected via tail vein and the brain was imaged with a microPET camera for 30 minutes. […] Following completion of imaging, the brain was harvested, photographed and dissected into left and right hemispheres and cerebellum. The tissue content of imaging agent 1 radioactivity was measured by gamma counter and Evans blue levels were determined by fluorescence method for calculation of the % injected dose/gram tissue and μg Evan blue/gram tissue, respectively.

Data set [2] concerns stress induced myocardial perfusion abnormalities. Nature of the data set: rest-stress imaging agent 1 PET versus Tc-99m Sestamibi SPECT MPI, single center. The format is in vivo, human. The conditions noted are these: myocardial segments supplied by diseased coronary arteries, 13 patients. Here is the method: Thirteen patients, from a single center, underwent rest-stress Tc-99m Sestamibi SPECT MPI, rest-stress imaging agent 1 PET MPI and coronary angiography. In each patient, 17 myocardial segments were visually scored for rest and stress images by independent observers who were blinded to all other results. For each patient, summed stress scores (SSS), summed rest scores (SRS), and summed difference scores (SDS) were determined from segmental scores. Percent narrowing in each coronary artery was evaluated blindly and 70% luminal diameter narrowing was considered significant.

The mark [3] stands for this setting: matched group of 13 patients with abnormal SPECT (^82Rb PET group).
[4] abbreviates: 25% D-mannitol compared to saline control.

Molecules are shown by their SMILES.

Regarding `[82Rb+].[Cl-]` [^82Rb, rubidium-82 (^82Rb) chloride], in the data set on myocardial ischemia (setting [3]), the “mean SDS (summed difference score)” value is 4.9±1.4. Also, the “differences in SDS, PET compared to SPECT” value with myocardial ischemia (patients with normal SPECT (SSS<4)) was “no differences”.

With `Cc1cc(-c2ccc(/N=N/c3ccc4c(S(=O)(=O)O)cc(S(=O)(=O)O)c(N)c4c3O)c(C)c2)ccc1/N=N/c1ccc2c(S(=O)(=O)O)cc(S(=O)(=O)O)c(N)c2c1O` [Evans blue], in data set [1] (setting [4]), the “increase in uptake, cerebellum” value came to 186%; the “increase in uptake, left hemisphere” value is listed as 633%; the “increase in uptake, right hemisphere” value is 216%. In addition, in data set [1] (BBBD (25% D-mannitol) rats), the “Brain uptake, cerebellum” value is 83 ± 12 µg/g; the “Brain uptake, left hemisphere” value was determined as 154 ± 13 µg/g; the “Brain uptake, right hemisphere” value was determined as 60 ± 8 µg/g. Further, in data set [1] (control (saline) rats), the “Brain uptake, cerebellum” value was 29 ± 4 µg/g; the “Brain uptake, left hemisphere” value was found to be 21 ± 2 µg/g; the “Brain uptake, right hemisphere” value is 19 ± 2 µg/g.

On to `[C-]#[N+]CC(C)(C)OC.[C-]#[N+]CC(C)(C)OC.[C-]#[N+]CC(C)(C)OC.[C-]#[N+]CC(C)(C)OC.[C-]#[N+]CC(C)(C)OC.[C-]#[N+]CC(C)(C)OC.[Tc]` [^99mTc sestamibi], for which, in data set [2], the SDS was determined as 5.4 ± 4.2, the SRS amounted to 3.1 ± 3.3 and the SSS was determined as 8.6 ± 5.8. Further, in the data set with myocardial ischemia (12 patients with normal SPECT (SSS<4)), the SDS entry is “zero”. Besides, the “mean SDS (summed difference score)” value with myocardial ischemia (14 patients with abnormal SPECT (SSS≥4)) was determined as 5.4±0.7. Also, in the data set with myocardial ischemia (26 patients, 2 blinded readers), the “image quality excellent, number of patients” value worked out at 7; the “image quality fair, number of patients” value is 1; the “image quality good, number of patients” value is 18. The “mean SDS (summed difference score)” value in the data set with myocardial ischemia (setting [3]) came out at 4.6±1.3.
